Results reported in patent US10695337B2, “Piperidin-4-yl azetidine derivatives as JAK1 inhibitors” (Incyte Corporation, priority 2010, dated 2020).

Molecular target: human JAK1 (a.a. 837-1142)
Test: In vitro JAK kinase assay (HTRF, phosphorylation of a biotinylated peptide), JAK1
Format: biochemical
Conditions: measured at 1 mM ATP; JAK2 IC50 / JAK1 IC50
Summary of the method: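 N-terminally His-tagged catalytic domains, baculovirus-expressed in insect cells and purified, were used as enzyme. Reactions ran 1 hr at room temperature and were stopped with a mix of 45 mM EDTA, 300 nM SA-APC and 6 nM Eu-Py20. The HTRF signal was read after 40 min of antibody binding.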

| SMILES | IC50 Ratio JAK2/JAK1 |
| --- | --- |
| Cc1nc(C(F)(F)F)ccc1NC(=O)N1CCC(N2CC(CC#N)(n3ccc(-c4ncnc5[nH]ccc45)c3)C2)CC1 [Example 285, 4-{3-(cyanomethyl)-3-[3-(7H-pyrrolo[2,3-d]pyrimidin-4-yl)-1H-pyrrol-1-yl]azetidin-1-yl}-N-[2-methyl-6-(trifluoromethyl)pyridin-3-yl]piperidine-1-carboxamide] | 5.7 |
| CN(C)c1ccc(C(=O)N2CCC(N3CC(CC#N)(n4cc(-c5ncnc6[nH]ccc56)cn4)C3)CC2)cc1C#N [Example 59, 5-[(4-{3-(cyanomethyl)-3-[4-(7H-pyrrolo[2,3-d]pyrimidin-4-yl)-1H-pyrazol-1-yl]azetidin-1-yl}piperidin-1yl)carbonyl]-2-(dimethylamino)benzonitrile] | 4.6 |
| N#CCC1(n2cc(-c3ncnc4[nH]ccc34)cn2)CN(C2CCN(Cc3c(Cl)cncc3Cl)CC2)C1 [Example 237, {1-{1-[(3,5-dichloropyridin-4-yl)methyl]piperidin-4-yl}-3-[4-(7H-pyrrolo[2,3-d]pyrimidin-4-yl)-1H-pyrazol-1-yl]azetidin-3-yl}acetonitrile] | 2.3 |
| N#CCC1(n2cc(-c3ncnc4[nH]ccc34)cn2)CN(C2CCN(C(=O)c3sc(C(F)(F)F)cc3O)CC2)C1 [Example 71, {1-{1-[3-hydroxy-5-(trifluoromethyl)-2-thienylcarbonyl]piperidin-4-yl}-3-[4-(7H-pyrrolo[2,3-d]pyrimidin-4-yl)-1H-pyrazol-1-yl]azetidin-3-yl}acetonitrile] | 4.4 |
| N#CCC1(n2cc(-c3ncnc4[nH]ccc34)cn2)CN(C2CCN(C(=O)c3ccc(F)c(Cl)c3)CC2)C1 [Example 34, {1-[1-(3-chloro-4-fluorobenzoyl)piperidin-4-yl]-3-[4-(7H-pyrrolo[2,3-d]pyrimidin-4-yl)-1H-pyrazol-1-yl]azetidin-3-yl}acetonitrile] | 6.0 |
| N#CCC1(n2cc(-c3ncnc4[nH]ccc34)cn2)CN(C2CCN(Cc3cccc(C(F)(F)F)c3F)CC2)C1 [Example 212, {1-{1-[2-fluoro-3-(trifluoromethyl)benzyl]piperidin-4-yl}-3-[4-(7H-pyrrolo[2,3-d]pyrimidin-4-yl)-1H-pyrazol-1-yl]azetidin-3-yl}acetonitrile] | 7.8 |
| N#CCC1(n2cc(-c3ncnc4[nH]ccc34)cn2)CN(C2CCN(C(=O)c3cc(CO)nc(C(F)(F)F)n3)CC2)C1 [Example 381, {1-(1-{[6-(hydroxymethyl)-2-(trifluoromethyl)pyrimidin-4-yl]carbonyl}piperidin-4-yl)-3-[4-(7H-pyrrolo[2,3-d]pyrimidin-4-yl)-1H-pyrazol-1-yl]azetidin-3-yl}acetonitrile] | 20 |
| COc1ccc(C(=O)N2CCC(N3CC(CC#N)(n4cc(-c5ncnc6[nH]ccc56)cn4)C3)CC2)cc1C#N [Example 55, 5-[(4-{3-(cyanomethyl)-3-[4-(7H-pyrrolo[2,3-d]pyrimidin-4-yl)-1H-pyrazol-1-yl]azetidin-1-yl}piperidin-1-yl)carbonyl]-2-methoxybenzonitrile] | 7.5 |
| N#CCC1(n2cc(-c3ncnc4[nH]ccc34)cn2)CN(C2CCN(C(=O)C3(c4ccc(Cl)cc4)CC3)CC2)C1 [Example 111, {1-(1-{[1-(4-chlorophenyl)cyclopropyl]carbonyl}piperidin-4-yl)-3-[4-(7H-pyrrolo [2,3-d]pyrimidin-4-yl)-1H-pyrazol-1-yl]azetidin-3-yl}acetonitrile] | 2.6 |
| Cc1onc(-c2ccccc2)c1CN1CCC(N2CC(CC#N)(n3cc(-c4ncnc5[nH]ccc45)cn3)C2)CC1 [Example 230, {1-{1-[(5-methyl-3-phenylisoxazol-4-yl)methyl]piperidin-4-yl}-3-[4-(7H-pyrrolo[2,3-d]pyrimidin-4-yl)-1H-pyrazol-1-yl]azetidin-3-yl}acetonitrile] | 9.3 |
| CCOC(=O)N1CCC(N2CC(CC#N)(n3cc(-c4ncnc5[nH]ccc45)cn3)C2)CC1 [Example 388, ethyl 4-{3-(cyanomethyl)-3-[4-(7H-pyrrolo[2,3-d]pyrimidin-4-yl)-1H-pyrazol-1-yl]azetidin-1-yl}piperidine-1-carboxylate] | 7.6 |
| N#CCC1(n2cc(-c3ncnc4[nH]ccc34)cn2)CN(C2CCN(C(=O)c3cccc(F)c3)CC2)C1 [Example 25, {1-[1-(3-fluorobenzoyl)piperidin-4-yl]-3-[4-(7H-pyrrolo[2,3-d]pyrimidin-4-yl)-1H-pyrazol-1-yl]azetidin-3-yl}acetonitrile] | 5.8 |
| COc1c(C(=O)N2CCC(N3CC(CC#N)(n4cc(-c5ncnc6[nH]ccc56)cn4)C3)CC2)csc1Cl [Example 74, {1-{1-[(5-chloro-4-methoxy-3-thienyl)carbonyl]piperidin-4-yl}-3-[4-(7H-pyrrolo[2,3-d]pyrimidin-4-yl)-1H-pyrazol-1-yl]azetidin-3-yl} acetonitrile] | 3.8 |
| N#CCC1(n2cc(-c3ncnc4[nH]ccc34)cn2)CN(C2CCN(C(=O)c3ccc(-c4ccncc4)c(F)c3)CC2)C1 [Example 117, {1-[1-(3-fluoro-4-pyridin-4-ylbenzoyl)piperidin-4-yl]-3-[4-(7H-pyrrolo[2,3-d]pyrimidin-4-yl)-1H-pyrazol-1-yl]azetidin-3-yl} acetonitrile] | 10.0 |
| N#CCC1(n2cc(-c3ncnc4[nH]ccc34)cn2)CN(C2CCN(C(=O)c3ccsc3)CC2)C1 [Example 15, {3-[4-(7H-pyrrolo[2,3-d]pyrimidin-4-yl)-1H-pyrazol-1-yl]-1-[1-(3-thienylcarbonyl)piperidin-4-yl]azetidin-3-yl}acetonitrile] | 5.3 |
| N#CCC1(n2cc(-c3ncnc4[nH]ccc34)cn2)CN(C2CCN(Cc3cccc(Cl)c3Cl)CC2)C1 [Example 219, {1-[1-(2,3-dichlorobenzyl)piperidin-4-yl]-3-[4-(7H-pyrrolo[2,3-d]pyrimidin-4-yl)-1H-pyrazol-1-yl]azetidin-3-yl}acetonitrile] | 2.4 |
| N#CCC1(n2cc(-c3ncnc4[nH]ccc34)cn2)CN(C2CCN(C(=O)c3ccc(-c4ccc(F)c(F)c4)c(F)c3)CC2)C1 [Example 127, (3-[4-(7H-pyrrolo[2,3-d]pyrimidin-4-yl)-1H-pyrazol-1-yl]-1-{1-[(2,3′,4′-trifluorobiphenyl-4-yl)carbonyl]piperidin-4-yl}azetidin-3-yl) acetonitrile] | 4.3 |
| N#CCC1(n2cc(-c3ccnc4[nH]ccc34)cn2)CN(C2CCN(C(=O)c3ccnc(C(F)(F)F)n3)CC2)C1 [Example 299, [3-[4-(1H-pyrrolo[2,3-b]pyridin-4-yl)-1H-pyrazol-1-yl]-1-(1-{[2-(trifluoromethyl)pyrimidin-4-yl]carbonyl}piperidin-4-yl)azetidin-3-yl]acetonitrile] | 6.6 |
| N#CCC1(n2ccc(-c3ncnc4[nH]ccc34)c2)CN(C2CCN(C(=O)c3cc(OC(F)(F)F)ccc3F)CC2)C1 [Example 269] | 5.0 |
| N#CCC1(n2cc(-c3ncnc4[nH]ccc34)cn2)CN(C2CCN(C(=O)Nc3nccs3)CC2)C1 [Example 190, 4-{3-(cyanomethyl)-3-[4-(7H-pyrrolo[2,3-d]pyrimidin-4-yl)-1H-pyrazol-1-yl]azetidin-1-yl}-N-1,3-thiazol-2-ylpiperidine-1-carboxamide] | 2.1 |
| N#CCC1(n2cc(-c3ncnc4[nH]ccc34)cn2)CN(C2CCN(C(=O)c3cc(F)ccc3F)CC2)C1 [Example 43, {1-[1-(2,5-difluorobenzoyl)piperidin-4-yl]-3-[4-(7H-pyrrolo[2,3-d]pyrimidin-4-yl)-1H-pyrazol-1-yl]azetidin-3-yl}acetonitrile] | 5.0 |
| N#CCC1(n2cc(-c3ncnc4[nH]ccc34)cn2)CN(C2CCN(C(=O)c3c(F)cc(F)cc3F)CC2)C1 [Example 49, {3-[4-(7H-pyrrolo[2,3-d]pyrimidin-4-yl)-1H-pyrazol-1-yl]-1-[1-(2,4,6-trifluorobenzoyl)piperidin-4-yl]azetidin-3-yl}acetonitrile] | 6.5 |
| N#CCC1(n2cc(-c3ncnc4[nH]ccc34)cn2)CN(C2CCN(C(=O)c3cccc(Cl)n3)CC2)C1 [Example 13, {1-{1-[(6-chloropyridin-2-yl)carbonyl]piperidin-4-yl}-3-[4-(7H-pyrrolo[2,3-d]pyrimidin-4-yl)-1H-pyrazol-1-yl]azetidin-3-yl}acetonitrile] | 5.3 |
| N#CCC1(n2ccc(-c3ncnc4[nH]ccc34)c2)CN(C2CCN(C(=O)c3ccc(O)c(C(F)(F)F)c3)CC2)C1 [Example 282, {1-{1-[4-hydroxy-3-(trifluoromethyl)benzoyl]piperidin-4-yl}-3-[3-(7H-pyrrolo[2,3-d]pyrimidin-4-yl)-1H-pyrrol-1-yl]azetidin-3-yl}acetonitrile] | 3.4 |
| N#CCC1(n2cc(-c3ncnc4[nH]ccc34)cn2)CN(C2CCN(C(=O)c3cccc(F)c3F)CC2)C1 [Example 41, {1-[1-(2,3-difluorobenzoyl)piperidin-4-yl]-3-[4-(7H-pyrrolo[2,3-d]pyrimidin-4-yl)-1H-pyrazol-1-yl]azetidin-3-yl}acetonitrile] | 4.9 |
| N#CCC1(n2cc(-c3ncnc4[nH]ccc34)cn2)CN(C2CCN(C(=O)c3cccc4ccccc34)CC2)C1 [Example 87, {1-[1-(1-naphthoyl)piperidin-4-yl]-3-[4-(7H-pyrrolo[2,3-d]pyrimidin-4-yl)-1H-pyrazol-1-yl]azetidin-3-yl}acetonitrile] | 0.3 |
| N#CCC1(n2cc(-c3ncnc4[nH]ccc34)cn2)CN(C2CC3CCC(C2)N3C(=O)c2ccnc(C(F)(F)F)c2F)C1 (stereo not drawn) [Example 142, {1-{8-[3-fluoro-2-(trifluoromethyl)isonicotinoyl]-8-azabicyclo[3.2.1]oct-3-yl}-3-[4-(7H-pyrrolo[2,3-d]pyrimidin-4-yl)-1H-pyrazol-1-yl]azetidin-3-yl}acetonitrile] | 7.4 |
